Among the test systems are 786-0; A549; ACHN; CAKI-1; CCRF-CEM; HCC 2998; HL-60; M14; MDA-MB-435; NCI-H23; NCI-H522; OVCAR-3; OVCAR-5; SNB-19; SNB-75; U-251; UACC-257; UACC-62; OVCAR-8; MOLT-4.
Holding throughout (experiment): inhibition of tumour cell growth, NCI panel, 48 h

Structures are written as SMILES.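 Step 1: Grow cells in 96-well plates. Step 2: Expose to compound for 48 hours at 5 concentrations. Step 3: Interpolate endpoints linearly; if unreached, use highest concentration. GI50: concentration for 50% inhibition of growth.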 The source made the active and inactive calls. Rule as the data show it: active = GI50 up to about 1.1 µM and inactive = higher.

As to `CCCN1C(=O)CN(S(=O)(=O)c2ccc(Cl)cc2)C1=O`, the GI50 in the experiment on 786-0, with A549, in the experiment on ACHN, in the experiment on CAKI-1, with CCRF-CEM and in the experiment on HCC 2998 was > 100 µM (inactive) each time. For the same compound, the GI50 in the experiment with HL-60, with M14, in the experiment with MDA-MB-435, in the experiment on NCI-H23, in the experiment with NCI-H522 and with OVCAR-3 was > 100 µM (inactive) in each case. For the same compound, the GI50 in the experiment on OVCAR-5, with SNB-19, in the experiment with SNB-75, in the experiment with U-251, in the experiment on UACC-257 and with UACC-62 was > 100 µM (inactive) each time.
For the compound `COC(=O)C(=O)C(C(=O)OC)C(=O)C(=O)Nc1c(Cl)cc([N+](=O)[O-])cc1Cl` (stereo not given), the GI50 in the experiment with 786-0 was 40.7 µM (inactive); in the experiment on A549, > 100 µM (inactive); in the experiment with ACHN it was 80.2 µM (inactive); in the experiment on CAKI-1, > 100 µM (inactive); in the experiment with CCRF-CEM, > 10 µM (inactive); with HCC 2998 it was > 100 µM (inactive). Further, the GI50 is > 100 µM (inactive) in the experiment on HL-60; > 100 µM (inactive) in the experiment with M14; > 100 µM (inactive) with MDA-MB-435; > 100 µM (inactive) with NCI-H23; 27 µM (inactive) in the experiment on NCI-H522; > 100 µM (inactive) with OVCAR-3. Further, the GI50 in the experiment on OVCAR-5 is > 100 µM (inactive); in the experiment on OVCAR-8 it was 46 µM (inactive); with SNB-19, > 100 µM (inactive); in the experiment with SNB-75, 64.1 µM (inactive); with U-251 it was 68.7 µM (inactive); with UACC-257, > 100 µM (inactive). In the experiment on UACC-62, the GI50 is > 100 µM (inactive).
Turning to `COC(=O)C(=O)C(C(=O)C(=O)Nc1nnc(S)[nH]1)c1nc2ccc([N+](=O)[O-])cc2nc1O` (stereo not given), the GI50 in the experiment with 786-0 was > 100 µM (inactive); with A549 it was > 100 µM (inactive); in the experiment on ACHN, 86.9 µM (inactive); in the experiment with CAKI-1, > 100 µM (inactive); with CCRF-CEM it was > 100 µM (inactive); with HCC 2998, > 100 µM (inactive). In addition, the GI50 in the experiment on HL-60, in the experiment on M14, with MDA-MB-435, with NCI-H23, in the experiment on NCI-H522 and in the experiment with OVCAR-3 was > 100 µM (inactive) each time. In addition, the GI50 with OVCAR-5 was > 100 µM (inactive); in the experiment with OVCAR-8, > 100 µM (inactive); with SNB-19 it was 44.7 µM (inactive); in the experiment with SNB-75 it was > 100 µM (inactive); in the experiment on U-251, > 100 µM (inactive); in the experiment with UACC-257, > 100 µM (inactive). Besides, in the experiment on UACC-62, the GI50 is > 100 µM (inactive).
In the case of `COc1c(O)c2c(c3cc(C(=O)N4CCc5c4c(O)c(OC)c4[nH]c(C(=O)N6CC7CC78C6=CC(=O)c6[nH]cc(C)c68)cc54)[nH]c13)CCN2C(N)=O` (stereo not given) [CC-1065], the GI50 in the experiment on 786-0 is 0.000381 µM (active); with A549, 0.000232 µM (active); in the experiment on ACHN, 0.00298 µM (active); with CAKI-1, 0.000975 µM (active); in the experiment with CCRF-CEM, 0.00507 µM (active); in the experiment on HCC 2998 it was 0.114 µM (active). The GI50 with HL-60 was 0.00783 µM (active); in the experiment with M14, 0.0016 µM (active); in the experiment with MDA-MB-435, 0.182 µM (active); in the experiment with MOLT-4, 0.0164 µM (active); in the experiment on NCI-H23, 0.000927 µM (active); in the experiment with NCI-H522 it was 0.0205 µM (active). For the same compound, the GI50 was 0.0197 µM (active) in the experiment with OVCAR-3; 0.000317 µM (active) in the experiment on OVCAR-8; 0.00457 µM (active) with SNB-19; 0.00356 µM (active) in the experiment on SNB-75; 0.000191 µM (active) in the experiment on U-251; 0.00352 µM (active) in the experiment with UACC-257. Also, in the experiment with UACC-62, the GI50 was 0.00187 µM (active).
